From US8273775B2, “Non-steroidal brassinosteroid mimetic” (priority 2006, dated 2012)

How the values were obtained:
[1] = tested on: cpd, det2-1 mutants; experiment: Phenotype rescue of BR-biosynthesis mutants; type: in vivo, Arabidopsis thaliana; conditions: for phenotype rescue of cpd mutant: day 5 to day 11 on 1 μM BL or 30 μM ABRASIN; for rescue of dwarfed phenotype: light-grown, abrasin 50 μM or BL 1 μM
Experimental: FIG. 5: Effect of brassinolide (BL) and abrasin (I5) treatment on mutants. WT or mutant plants were grown under standard conditions on agar plates. After 3 days of germination, plants were transferred to agar plates containing abrasin at a concentration of 50 μM or BL at a concentration of 1 μM.
For further phenotypical analysis, all plants were grown on vertically oriented square plates (Greiner Labortechnik, Austria) with solid medium derived from standard Murashige and Skoog medium under the same conditions. For the hypocotyl-elongation assay, plants were grown in the dark at 22° C. under the same conditions.
(§1) Col-0, the null BR signaling bri1-116 (Friedrichsen et al., 2000) and BR biosynthetic cpd (Szekeres et al., 1996) mutants were subjected to phenotype rescue analysis by treatments with BL and ABRASIN. As a negative control, dimethylsulfoxide (DMSO) was used. Plants were germinated in vitro for 5 days on ½ MS containing DMSO medium and from day 6th to day 11th they were transferred on medium supplemented with BL (10 nM, 100 nM, 1000 nM), ABRASIN (5 μM, 10 μM, 30 μM) or DMSO. Cotyledons and leaves were collected for flowcytometric analysis at the 11th day (i.e. 6 days of treatments). Samples for β-glucuronidase (GUS) assay were taken on day 6th (i.e. 1 day treatments), 8th (i.e. 3 days treatments), 10th (i.e. 5 days treatments). Rescue of soil-grown mutants at different growth stages was checked by watering bri1-116 and cpd mutants with either BL or 2 ml 300 μM ABRASIN per day.

[2] = tested on: BES1 protein in 35S:BES1:GFP plants; experiment: Western blot analysis of BES1 phosphorylation state; type: in vivo, Arabidopsis thaliana
Experimental: FIG. 8: A: Western Blot analysis of the BES1 protein in 35S:BES1:GFP plants treated with BL and abrasin (indicated as I5 throughout the figure) (A); MG132 with BL or abrasin (B); a time course with abrasin (C) and a concentration gradient with abrasin (D). B: Abrasin and BL induce similar transcriptional regulation of the BR pathway.
For protein extraction, six-day-old seedlings were grown under standard conditions as described earlier on solid medium. Plants were next soaked in liquid MS-medium supplemented with the indicated compounds (concentrations and time periods as indicated in figures). Subsequently, plants were frozen in liquid nitrogen, ground and homogenized in ice-cold homogenization buffer (25 mM Tris-HCl (pH 8), 5 mM EDTA, 1 mM β-Mercapto-ethanol, 15 mM MgCl—2, 85 mM NaCl, 0.1% Tween 20, 1 protease inhibitor tablet/50 ml, Complete (Roche diagnostics, Belgium)). The homogenate was centrifuged twice (5 min, 14.000 rpm, 4° C.) in an Eppendorf Centrifuge 5417. Loading buffer was added, the samples were heated for 10 min at 95° C. and centrifuged. The samples were separated on a 12% acrylamide gel or a 4-20% gradient pre-cast gel (Bio-Rad) and blotted on nitrocellulose membranes (Hybond-C super, GE-Biosciences, UK) in 190 mM glycine and 25 mM Tris-Hcl using a mini-blotting system (Bio-Rad, USA) for 1 h. Membranes were blocked overnight at 4° C. in phosphate buffer with 0.1% Tween 20 and 5% skim milk (BD Difco, USA). For immunodetection, anti-BES1 antibodies at 1:2000 dilution and anti-GFP antibodies at 1:1000 dilution were used as primary antibody. As secondary antibody, anti-rat and anti-rabbit were used at 1:10.000 dilution. The proteins were detected by chemiluminescence (Perkin-Elmer, USA).

[3] = tested on: bri1-116 and cpd mutants; experiment: Flowcytometric analysis of DNA content of cotyledons and leaves; type: in vivo, Arabidopsis; conditions: 6 days of treatments
Experimental: FIG. 16: Rescue of bri1-116 and cpd mutants grown on different concentrations of ABRASIN and BL. The plants were germinated on MS+DMSO medium till day 5 and afterwards transferred on MS supplemented with the respective concentration of ABRASIN and BL for 6 more days. Flowcytometric analysis of cotyledons and leaves was performed at the last day of treatments. (A.) Rescue of bri1-116 mutants by ABRASIN. Increasing the ABRASIN concentration promotes cell division activation. (B.) Rescue of cpd mutants by ABRASIN. Increasing the ABRASIN concentration promotes cell division activation. (C.) Rescue of cpd mutants by BL. Both cell division and endoreduplication take place in the BL rescue strategy. BL: brassinolide; BIK: abrasin.
as §1
Samples for flow cytometric analysis were collected and analyzed as described earlier (De Veylder et al., 2001)

SMILES | concentration sufficient to rescue the mutant phenotypes ([1]; 6 days of treatments) [nM] | phenotype rescue of cpd mutant [1] | rescue of dwarfed phenotype [1] | BES1 phosphorylation state ([2]; addition of BL or MG132) | DNA content distribution of leaves [3] | total amount of BES1 protein ([2]; abrasin 50 μM) | BES1 phosphorylation state ([2]; abrasin 5 to 10 μM) | time to shift towards the non-phosphorylated BES1 protein ([2]; after addition to the medium) [min] | DNA content of cotyledons [3]
CC(C)[C@H](C)[C@@H](O)[C@H](O)[C@@H](C)[C@H]1CC[C@H]2[C@@H]3COC(=O)[C@H]4C[C@H](O)[C@H](O)C[C@]4(C)[C@H]3CC[C@]12C [BL, brassinolide, reference compound] | 10 | rescued the dwarf statute of the cpd to a wild-type | rescues the cpd and det2-1 mutants | induces more non-phosphorylated protein | did not significantly changes the DNA content distribution |  |  |  | 
O=C(O)CCC(=O)Nc1ccc(Br)cn1 [abrasin, 4-[(5-bromo-2-pyridinyl)amino]-4-oxobutanoic acid] |  | rescued the phenotypes of both bri1-116 and cpd mutants to the wild-type | all mutant lines, including the bri1 receptor mutants, showed an elongated phenotype |  | significantly increased the 2C and 4C content and completely suppressed the 16C content | the total amount of BES1 protein is also reduced | a shift towards non-phosphorylated BES1 is observed | ≤ 30 | the values for cotyledons did not differ form the untreated controls
